Source: the supplement of paper PMC10307832

Legend:
Experiment in all cases: relative viability (nuclei count vs DMSO), 5 days (fraction); higher = more cells survive
NCI-H1755 = tested on: NCI-H1755
Method in brief: (§1)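 Medians of duplicate plates are given as relative viability. That measure is the nuclei count in treated wells divided by the count in vehicle wells. Counts were taken on 4× images of lung cancer cell lines in 1536-well plates, 5 days after pin-tool dosing the day after seeding with one drug alone or a fixed anchor-drug dose plus five library-drug doses (not always all listed) in √10 steps.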

LCLC-103H = tested on: LCLC-103H
Method in brief: as §1

NCI-H1395 = tested on: NCI-H1395
Method in brief: as §1

A549 = tested on: A549
Method in brief: as §1

HCC-44 = tested on: HCC-44
Method in brief: as §1

EKVX = tested on: EKVX
Method in brief: as §1

NCI-H1623 = tested on: NCI-H1623
Method in brief: as §1

UMC-11 = tested on: UMC-11
Method in brief: as §1

HCC-15 = tested on: HCC-15
Method in brief: as §1

Work on `CC(=O)O[C@@]12CO[C@@H]1C[C@H](O)[C@@]1(C)C(=O)[C@H](O)C3=C(C)[C@@H](OC(=O)[C@H](O)[C@@H](NC(=O)OC(C)(C)C)c4ccccc4)C[C@@](O)([C@@H](OC(=O)c4ccccc4)[C@H]21)C3(C)C` [Docetaxel] + N=C(N)NC(=N)NCCc1ccccc1 [Phenformin] (partner 250 µM) yielded a relative viability (NCI-H1755; first compound 0.0002 µM) of 0.621, a relative viability (NCI-H1755; first compound 0.000632 µM) of 0.577 and a relative viability (NCI-H1755; first compound 0.002 µM) of 0.411. It also gave a relative viability (NCI-H1755; first compound 0.006325 µM) of 0.434, a relative viability (NCI-H1755; first compound 0.02 µM) of 0.36 and a relative viability (LCLC-103H; first compound 0.0002 µM) of 0.347. The relative viability (LCLC-103H; first compound 0.000632 µM) was 0.344, the relative viability (LCLC-103H; first compound 0.002 µM) was 0.308 and the relative viability (LCLC-103H; first compound 0.006325 µM) was 0.282. The relative viability (LCLC-103H; first compound 0.02 µM) was 0.248, the relative viability (NCI-H1395; first compound 0.0002 µM) was 0.434 and the relative viability (NCI-H1395; first compound 0.000632 µM) was 0.45. For the same molecule, the relative viability (NCI-H1395; first compound 0.002 µM) was 0.442, the relative viability (NCI-H1395; first compound 0.006325 µM) was 0.283 and the relative viability (NCI-H1395; first compound 0.02 µM) was 0.334. The relative viability (A549; first compound 0.0002 µM) was 0.203, the relative viability (A549; first compound 0.000632 µM) was 0.0682 and the relative viability (A549; first compound 0.002 µM) was 0.0555. The relative viability (A549; first compound 0.006325 µM) was 0.0466, the relative viability (A549; first compound 0.02 µM) was 0.0476 and the relative viability (HCC-44; first compound 0.0002 µM) was 0.185. The relative viability (HCC-44; first compound 0.000632 µM) was 0.113, the relative viability (HCC-44; first compound 0.002 µM) was 0.113 and the relative viability (HCC-44; first compound 0.006325 µM) was 0.101. It also gave a relative viability (HCC-44; first compound 0.02 µM) of 0.0735, a relative viability (EKVX; first compound 0.0002 µM) of 0.264 and a relative viability (EKVX; first compound 0.000632 µM) of 0.218. The relative viability (EKVX; first compound 0.002 µM) was 0.191, the relative viability (EKVX; first compound 0.006325 µM) was 0.149 and the relative viability (EKVX; first compound 0.02 µM) was 0.137. It also gave a relative viability (NCI-H1623; first compound 0.0002 µM) of 0.54, a relative viability (NCI-H1623; first compound 0.000632 µM) of 0.568 and a relative viability (NCI-H1623; first compound 0.002 µM) of 0.494. The relative viability (NCI-H1623; first compound 0.006325 µM) was 0.313, the relative viability (NCI-H1623; first compound 0.02 µM) was 0.239 and the relative viability (UMC-11; first compound 0.0002 µM) was 0.309. It also gave a relative viability (UMC-11; first compound 0.000632 µM) of 0.332, a relative viability (UMC-11; first compound 0.002 µM) of 0.228 and a relative viability (UMC-11; first compound 0.006325 µM) of 0.205. It also gave a relative viability (UMC-11; first compound 0.02 µM) of 0.199, a relative viability (HCC-15; first compound 0.0002 µM) of 0.402 and a relative viability (HCC-15; first compound 0.000632 µM) of 0.315. For the same molecule, the relative viability (HCC-15; first compound 0.002 µM) was 0.181, the relative viability (HCC-15; first compound 0.006325 µM) was 0.203 and the relative viability (HCC-15; first compound 0.02 µM) was 0.113.
Molecule `Cc1sc2c(c1C)C(c1ccc(Cl)cc1)=N[C@@H](CC(=O)OC(C)(C)C)c1nnc(C)n1-2` [JQ1] + CCNC(=O)c1noc(-c2cc(C(C)C)c(O)cc2O)c1-c1ccc(CN2CCOCC2)cc1 [Luminespib] (partner 0.01 µM) has a relative viability (NCI-H1755; first compound 0.04 µM) of 0.645, a relative viability (NCI-H1755; first compound 0.1265 µM) of 0.283 and a relative viability (NCI-H1755; first compound 0.4 µM) of 0.539. It also gave a relative viability (NCI-H1755; first compound 1.265 µM) of 0.393, a relative viability (NCI-H1755; first compound 4 µM) of 0.442 and a relative viability (LCLC-103H; first compound 0.04 µM) of 0.973. It also gave a relative viability (LCLC-103H; first compound 0.1265 µM) of 0.85, a relative viability (LCLC-103H; first compound 0.4 µM) of 0.533 and a relative viability (LCLC-103H; first compound 1.265 µM) of 0.47. For the same molecule, the relative viability (LCLC-103H; first compound 4 µM) was 0.358, the relative viability (NCI-H1395; first compound 0.04 µM) was 0.761 and the relative viability (NCI-H1395; first compound 0.1265 µM) was 0.681. For the same molecule, the relative viability (NCI-H1395; first compound 0.4 µM) was 0.808, the relative viability (NCI-H1395; first compound 1.265 µM) was 0.399 and the relative viability (NCI-H1395; first compound 4 µM) was 0.458. For the same molecule, the relative viability (HCC-44; first compound 0.04 µM) was 0.968, the relative viability (HCC-44; first compound 0.1265 µM) was 0.433 and the relative viability (HCC-44; first compound 0.4 µM) was 0.551. For the same molecule, the relative viability (HCC-44; first compound 1.265 µM) was 0.388, the relative viability (HCC-44; first compound 4 µM) was 0.153 and the relative viability (EKVX; first compound 0.04 µM) was 0.832. It also gave a relative viability (EKVX; first compound 0.1265 µM) of 0.877, a relative viability (EKVX; first compound 0.4 µM) of 0.895 and a relative viability (EKVX; first compound 1.265 µM) of 0.824. The relative viability (EKVX; first compound 4 µM) was 0.572, the relative viability (NCI-H1623; first compound 0.04 µM) was 0.543 and the relative viability (NCI-H1623; first compound 0.1265 µM) was 0.593. The relative viability (NCI-H1623; first compound 0.4 µM) was 0.459, the relative viability (NCI-H1623; first compound 1.265 µM) was 0.466 and the relative viability (NCI-H1623; first compound 4 µM) was 0.418. It also gave a relative viability (UMC-11; first compound 0.04 µM) of 0.865, a relative viability (UMC-11; first compound 0.1265 µM) of 0.83 and a relative viability (UMC-11; first compound 0.4 µM) of 0.336. It also gave a relative viability (UMC-11; first compound 1.265 µM) of 0.278, a relative viability (UMC-11; first compound 4 µM) of 0.219 and a relative viability (HCC-15; first compound 0.04 µM) of 0.348. For the same molecule, the relative viability (HCC-15; first compound 0.4 µM) was 0.45, the relative viability (HCC-15; first compound 1.265 µM) was 0.298 and the relative viability (HCC-15; first compound 4 µM) was 0.216.
